From BindingDB's records for doi:10.1021/acs.jmedchem.7b01492 (Peking University, 2019)

Molecular target: Neuronal acetylcholine receptor subunit alpha-7 (Homo sapiens, UniProt P36544)
Assay: Positive allosteric modulation of human alpha7 nAChR expressed in Xenopus laevis oocytes assessed as increase in acetylcholine-induced channel current by measuring acetylcholine EC50 at 10 uM at -90 mV holding potential preincubated for 2 mins followed by co-application with acetylcholine for 10 secs by two-electrode voltage clamp method (Rvb = 256.4 +/- 20.1 uM)

Chain of Neuronal acetylcholine receptor subunit alpha-7 (P36544 whole entry): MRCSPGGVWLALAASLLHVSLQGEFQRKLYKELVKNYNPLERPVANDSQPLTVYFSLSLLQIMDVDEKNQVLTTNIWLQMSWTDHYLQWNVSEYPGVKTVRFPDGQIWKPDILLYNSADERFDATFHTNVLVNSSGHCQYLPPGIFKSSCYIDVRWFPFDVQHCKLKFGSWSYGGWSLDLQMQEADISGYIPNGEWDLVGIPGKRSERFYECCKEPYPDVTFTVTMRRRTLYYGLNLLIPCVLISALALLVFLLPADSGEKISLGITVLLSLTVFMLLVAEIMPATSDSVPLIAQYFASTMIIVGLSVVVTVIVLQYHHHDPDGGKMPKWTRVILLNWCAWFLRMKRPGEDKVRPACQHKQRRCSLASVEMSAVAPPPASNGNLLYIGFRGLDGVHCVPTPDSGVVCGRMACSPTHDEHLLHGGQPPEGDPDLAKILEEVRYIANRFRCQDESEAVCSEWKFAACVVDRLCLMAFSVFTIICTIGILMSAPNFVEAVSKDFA

EC50: 187 µM
Compound: Cc1cccc(Cl)c1-n1cnc2nc(SCc3ccccc3)sc2c1=O
